From patent US11999697B2, “Methods and compositions for inhibition of dihydroorotate dehydrogenase” (OHIO STATE INNOVATION FOUNDATION, priority 2018, dated 2024)

How the values were obtained:
[1] = system: THP1; experiment: MTS cell proliferation assay, THP1; format: cell-based; settings: Homo sapiens, THP-1, 96 hours
Protocol: (§1) Triplicate wells were set up for each condition.
The assays were carried out in a blinded fashion.

[2] = system: primary human AML cells; experiment: MTS assay in primary AML cells on HS5 stromal cells; format: cell-based; settings: 96 hours
Protocol: as §1
Cpd3 efficacy was assessed in primary AML samples. Due to the poor in vitro viability of primary cells, these assays were performed in the presence of a support layer of human bone marrow stromal cells (HS5). Cells were treated with Cpd3 or BQR for 96 hours, followed by viability using an MTS assay. FIGS. 2A-2B show representative data for proliferation of primary human AML cells in the presence of a representative disclosed compound, Cpd3, compared to a reference compound, brequinar (BQR), using a MTS cell proliferation assay as described herein below. Briefly, primary AML cells were cultured in the presence human bone marrow stromal cells, and were treated with vehicle (DMSO), or varying doses of Cpd3 or brequinar sodium (BQR) for 96 hours. Cell growth was determined at 96 hours relative to the vehicle (DMSO) control using an MTS assay (N=6 primary AML samples). […] The IC50 values determined were variable, with an […] of about 0.2 μM in some samples. However, in other primary cell samples an IC50 could not be determined (FIG. 2A).

[3] = system: primary human AML cells; experiment: Colony formation (CFU) assay in methocult media; format: cell-based; settings: 1 μM, 14 days
Protocol: Colony formation (CFU) assays in methocult media: CFU assays can detect an increase or decrease in the frequency of the hematopoietic progenitor proliferation and/or changes in differentiation potential in response to stimulatory, inhibitory or toxic agents. For CFU assays with primary AML cells, cells were cultured overnight in media containing IL-3, GM-CSF, SCF, and FLT3L cytokines at 20 ng/ml. 10-25K primary cells were suspended in MethoCult™ Optimum without EPO which is supplemented with SCF, IL-3, G-CSF, GM-CSF along with vehicle, 1 μM Cpd3 or 1 μM brequinar. After 14 days the total number of colonies was counted and the cells were solubilized from the methocult for cytospin assays described below. […] FIGS. 3A-3B show representative data for colony formation for primary human AML cells in the presence of a representative disclosed compound, Cpd3, compared to a reference compound, brequinar, or vehicle treatment using methods as described herein below. Briefly, primary AML cells were treated with vehicle (DMSO), Cpd3 (1 μM) or brequinar sodium (BQR, 1 μM) and plated in methocult media for 14 days. Results are plotted as the total number of colonies per each condition. Lines connecting data from the same patient sample are shown in order to indicate the trend within a particular sample.

[4] = system: NK cell function (MV4-11 targets, normal donor NK cells); experiment: Antibody dependent cellular cytotoxicity (ADCC) assay by 51Cr release; format: cell-based, human; settings: 1 μM, 4 hours 51Cr release
Protocol: Antibody Dependent Cellular Cytotoxicity (ADCC) Assay by ^51Cr Release: Assessment of NK-cell killing activity was performed using standard 4 hour ^51Cr release (CR) assay. Donor NK cells (effector cells) were isolated from the peripheral blood of normal donors (N=2). MV4-11 cells (target cells) were labeled with radioactive ^51Cr for 1 h at 37° C., washed, and plated in 96 well V-bottom plates at a density of 1×10^4 cells/well. Vehicle or 1 μM Cpd3 was added to either the NKs cells, the MV4-11 cells, or both prior to co-culturing. The ^51Cr labeled MV4-11 cells and NK cells were then co-cultured 25:1 or 12:1 effector to target (E:T) ratio in the presence of antibodies targeting the CD33 surface receptor (B133; B1836858), non-targeting isotype control (B147; B1836847), each at […], or no antibody control. Supernatants were collected after 4 h of co-culture and counted on a Perkin Elmer (Waltham, Mass.) Wizard γ-counter. The percentage of specific cell lysis was determined by: % lysis=100×(ER-SR)/(MR-SR). ER, SR, and MR represent experimental, spontaneous and maximum release. Data were normalized to the untreated control.
Briefly, a chromium (Cr^51) release antibody dependent cellular toxicity assay was carried out with MV4-11 cells (targets) and normal donor NK cells (effectors; N=2). […] Cr^51 release was measured following 4 hours of incubation to determine relative toxicity.

[5] = system: murine AML cells (Tet2-KO/Flt3-ITD, IDH2-R140Q/Flt3-ITD); experiment: MTS assay on murine AML bone marrow cells ex vivo; format: cell-based, mice; settings: 0-10 μM, 96 hours
From the text: as §1
In particular, the in vivo effects of Cpd3 on the immune repertoire is important in view of previous reports describing DHODH inhibitors as having diverse effects on innate and cellular immune function. FIGS. 9A-9B show representative data for proliferation of murine AML cells in the presence of a representative disclosed compound, Cpd3, compared to a reference compound, brequinar (indicated as “BQR” in the figure). […] Briefly, bone marrow cells were isolated from leukemic Tet2-KO/Flt3-ITD mice (FIG. 9A; N=7) or leukemic IDH2-R140Q/Flt3-ITD mice (FIG. 9B; N=3) were treated ex vivo with Cpd3 or BQR (dose range 0-10 μM). Cell growth was determined at 96 hours relative to the vehicle (DMSO) control using a MTS cell proliferation assay as described herein below.

[6] = system: kinases (more than 480 kinase assays); experiment: DiscoverX KINOMEscan panel; format: binding; settings: 1 μM and 10 μM
From the text: A representative disclosed compound, Cpd3, was screened for potential noncovalent binding interaction with kinases by screening a comprehensive panel in the DiscoverX KINOMEscan® platform (Eurofins DiscoverX Corporation, Fremont, Calif. 94538; e.g., see also Herman, S. E. M., et al., Clin Cancer Res; 23(11) Jun. 1, 2017). Panel allows for screening against more than 480 kinase assays including clinically relevant mutants, lipid, atypical, and pathogen kinases. The screening system provides for thermodynamic affinity data (as opposed to IC50s), and allows for detection of multiple inhibitor types, including type I, type II, and allosteric. […] It is notable that the upper limit tested in this screen is at least 10-fold greater than the observed in vitro IC50 for activity in the assays discussed above.

CCOc1ccc(-c2ccc(-c3cc(C(=O)O)c4cc(F)ccc4n3)cc2)cc1 [Cpd3, 2-(4′-ethoxy-[1,1′-biphenyl]-4-yl)-6-fluoroquinoline-4-carboxylic acid]
IC50 [1]: 1.1 µM | IC60 in primary AML samples ([2]; HS5 stromal support, some samples): about 0.2 μM | growth of primary AML cells ([2]; N=6 primary AML samples): decreases growth of primary AML cells comparable to the reference compound | growth in methocult colony forming unit (CFU) assays [3]: decreased growth | NK cell function [4]: does not impact NK cell function | potency on murine leukemic cells ex vivo relative to BQR [5]: a log fold more potent than BQR | noncovalent binding interaction with kinases [6]: no apparent interactions with the screen targets
